# Test results from the supplement of paper PMC10307832.
# What was measured:
# Test in all cases: relative viability (nuclei count vs DMSO), 5 days (fraction); higher = more cells survive
# Lestaurtinib + Dasatinib = compound: C[C@]12O[C@H](C[C@]1(O)CO)n1c3ccccc3c3c4c(c5c6ccccc6n2c5c31)CNC4=O [Lestaurtinib] + Cc1nc(Nc2ncc(C(=O)Nc3c(C)cccc3Cl)s2)cc(N2CCN(CCO)CC2)n1 [Dasatinib] (partner 0.075 µM)
# Method in brief: (§1)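 Cells from lung cancer lines were seeded into 1536-well plates and, one day later, dosed by pin tool. Treatments were either a single drug or a fixed dose of an anchor drug with five library-drug doses (not always all listed) in √10 steps. After 5 days, nuclei were stained in a one-step fixation (final 0.05% Triton X-100, 1% formaldehyde, 1 ug/ml Hoechst) and counted on 4× images, and relative viability is the treated-to-vehicle nuclei ratio, as the median of duplicate plates.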
# [1] = compound: C[C@]12O[C@H](C[C@]1(O)CO)n1c3ccccc3c3c4c(c5c6ccccc6n2c5c31)CNC4=O [Lestaurtinib] + CC1(C)CCC(c2ccc(Cl)cc2)=C(CN2CCN(c3ccc(C(=O)NS(=O)(=O)c4ccc(N[C@H](CCN5CCOCC5)CSc5ccccc5)c(S(=O)(=O)C(F)(F)F)c4)cc3)CC2)C1 [Navitoclax] (partner 0.5 µM)
# Method in brief: as §1
# [2] = compound: C[C@]12O[C@H](C[C@]1(O)CO)n1c3ccccc3c3c4c(c5c6ccccc6n2c5c31)CNC4=O [Lestaurtinib] + Nc1nc2[nH]cc(CCc3ccc(C(=O)N[C@@H](CCC(=O)O)C(=O)O)cc3)c2c(=O)[nH]1 [Pemetrexed] (partner 0.2 µM)
# Method in brief: as §1
# Lestaurtinib + Foretinib = compound: C[C@]12O[C@H](C[C@]1(O)CO)n1c3ccccc3c3c4c(c5c6ccccc6n2c5c31)CNC4=O [Lestaurtinib] + COc1cc2c(Oc3ccc(NC(=O)C4(C(=O)Nc5ccc(F)cc5)CC4)cc3F)ccnc2cc1OCCCN1CCOCC1 [Foretinib] (partner 0.25 µM)
# Method in brief: as §1
Cell Line,relative viability (Lestaurtinib + Dasatinib; first compound 0.005 µM),relative viability (Lestaurtinib + Dasatinib; first compound 0.01581 µM),relative viability (Lestaurtinib + Dasatinib; first compound 0.05 µM),relative viability (Lestaurtinib + Dasatinib; first compound 0.1581 µM),relative viability (Lestaurtinib + Dasatinib; first compound 0.5 µM),relative viability ([1]; first compound 0.005 µM),relative viability ([1]; first compound 0.01581 µM),relative viability ([1]; first compound 0.05 µM),relative viability ([1]; first compound 0.1581 µM),relative viability ([1]; first compound 0.5 µM),relative viability ([2]; first compound 0.005 µM),relative viability ([2]; first compound 0.01581 µM),relative viability ([2]; first compound 0.05 µM),relative viability ([2]; first compound 0.1581 µM),relative viability ([2]; first compound 0.5 µM),relative viability (Lestaurtinib + Foretinib; first compound 0.005 µM),relative viability (Lestaurtinib + Foretinib; first compound 0.01581 µM),relative viability (Lestaurtinib + Foretinib; first compound 0.05 µM),relative viability (Lestaurtinib + Foretinib; first compound 0.1581 µM),relative viability (Lestaurtinib + Foretinib; first compound 0.5 µM)
NCI-H2228,0.494,0.546,0.497,0.22,0.18,0.985,1.29,0.839,0.554,0.162,0.381,0.383,0.299,0.147,0.148,0.885,0.896,0.523,0.379,0.254
NCI-H2347,0.278,0.15,0.319,0.252,0.253,0.835,0.87,0.575,0.526,0.42,0.443,0.43,0.432,0.44,0.404,1.18,1.38,0.865,0.98,0.598
NCI-H2405,0.199,0.211,0.186,0.196,0.17,1,0.86,0.889,0.55,0.216,1.01,1.25,1.03,0.887,0.374,1.11,1.08,1.05,0.805,0.384
NCI-H3122,0.881,0.871,0.869,1.15,0.598,1.13,1.1,1.12,1.12,0.536,0.227,0.205,0.193,0.216,0.187,1.06,0.984,1.01,1.03,0.793
PC-3 [JPC-3],1.01,1.02,0.843,0.857,0.483,0.84,0.788,0.763,0.65,0.55,0.747,1.5,0.918,0.94,0.613,1.01,1.1,0.938,0.902,0.558
PC-14,0.294,0.286,0.231,0.13,0.0741,1.09,1.07,0.765,0.863,0.607,0.153,0.131,0.154,0.154,0.0792,0.963,1.09,0.619,0.517,0.687
RERF-LC-KJ,0.902,0.908,0.526,0.648,0.316,1.24,1.1,0.792,0.618,0.641,0.482,0.496,0.417,0.455,0.351,0.914,1.04,0.762,0.749,0.816
SK-LU-1,0.155,0.168,0.146,0.161,0.126,0.822,0.736,0.509,0.292,0.173,1,0.802,0.476,0.457,0.284,0.763,0.707,0.4,0.38,0.205
SK-MES-1,0.396,0.333,0.426,0.206,0.159,1.35,1.25,0.59,0.354,0.343,0.982,0.918,0.506,0.413,0.26,0.906,0.866,0.599,0.33,0.334
SW 1573,0.605,0.454,0.246,0.162,0.0823,1.14,1.01,0.851,0.699,0.68,1.03,0.86,0.666,0.303,0.119,0.895,0.889,0.826,0.668,0.518
